Reference: article PMC6520686, “Activation Studies of the γ-Carbonic Anhydrases from the Antarctic Marine Bacteria Pseudoalteromonas haloplanktis and Colwellia psychrerythraea with Amino Acids and Amines” (Marine Drugs, 2019)

Key:
CpsCA = tested on: T1, CpsCA; test: stopped-flow CO2 hydration assay; assay type: biochemical, Colwellia psychrerythraea; conditions: activation constant (activator); CO2 substrate; TRIS pH 8.3, 0.1 M NaClO4, 25 °C; 15 min pre-incubation
T1 construct: purified recombinant gamma-class enzyme
From the text: stopped-flow CO2 hydration assay on CpsCA

PhaCA = tested on: T2, PhaCA; test: stopped-flow CO2 hydration assay; assay type: biochemical, Pseudoalteromonas haloplanktis; conditions: activation constant (activator); CO2 substrate; TRIS pH 8.3, 0.1 M NaClO4, 25 °C; 15 min pre-incubation
T2 construct: purified recombinant gamma-class enzyme
From the text: stopped-flow CO2 hydration assay on PhaCA

Structure (SMILES) | KA (μM) * / CpsCA ^b (CpsCA) | KA (μM) * / PhaCA ^b (PhaCA)
N[C@H](Cc1ccccc1)C(=O)O [compound 4, D-Phe] | 15.4 µM | 3.19 µM
N[C@H](Cc1ccc(O)cc1)C(=O)O [compound 10, D-Tyr] | 18.4 µM | 7.35 µM
N[C@@H](Cc1ccc(O)c(O)c1)C(=O)O [compound 5, L-DOPA] | 4.79 µM | 1.08 µM
N[C@H](Cc1ccc(O)c(O)c1)C(=O)O [compound 6, D-DOPA] | 11.2 µM | 0.72 µM
Nc1ccc(C[C@H](N)C(=O)O)cc1 [compound 11, 4-H2N-L-Phe] | 17.2 µM | 3.27 µM
NCCc1c[nH]cn1 [compound 12, Histamine] | 20.6 µM | 6.48 µM
N[C@@H](Cc1ccc(O)cc1)C(=O)O [compound 9, L-Tyr] | 19.5 µM | 1.02 µM
NCCc1ccc(O)c(O)c1 [compound 13, Dopamine] |  | 8.70 µM
N[C@H](CCC(=O)O)C(=O)O [compound 23, D-Glu] | 12.0 µM | 
N[C@@H](Cc1c[nH]c2ccccc12)C(=O)O [compound 7, L-Trp] | 21.3 µM | 7.12 µM
NCc1ccccn1 [compound 15, 2-Pyridyl-methylamine] | 21.5 µM | 2.39 µM
